Earlier results in US20250334554A1, “ANALYTICAL METHOD FOR QUANTIFYING SUCRALOSE-6-ACETATE CONTENT” (Avazyme, Inc., priority 2024, published 2025).
Peptide text beside a SMILES is read from it.

Assays:
humans = details: 2023, Riboli et al.
[1] = Schiffman et al. 2023

Compound	IARC carcinogenicity classification (humans)	consumption level at which may be genotoxic [1] [µg/day]
COC(=O)[C@H](Cc1ccccc1)NC(=O)[C@@H](N)CC(=O)O [aspartame] (H-Asp-Phe-OMe)	possibly carcinogenic to humans (Group 2B)	–
CC(=O)OC[C@H]1O[C@H](O[C@]2(CCl)O[C@H](CCl)[C@@H](O)[C@@H]2O)[C@H](O)[C@@H](O)[C@H]1Cl [sucralose-6-acetate]	–	0.15
